We go through one compound from patent US11414488B2, “Methods for treating cancer” (BicycleRD Limited, priority 2019, dated 2022).

Structures are written as SMILES. Where two headings read alike, the source gives them in different places.

Data set [1] is described as follows: Tolerability and deaths in E0771 study (Example 3). In kind it is in vivo, Mouse. To be noted: single agent paclitaxel 15 mg/kg; considered non-specific deaths, treatment not completely ruled out. From the text:
Animals euthanized during the same period for other causes (sampling, accidental trauma, etc.) are excluded from this calculation. […] (Group toxicity parameter)

Data set [2] has as its system orthotopic E0771 murine mammary carcinoma. To be noted: for anti-tumor activity (in words): BT17BDC-18 at 6.2 mg/kg or 4.8 mg/kg, anti-mPD-1 10 mg/kg, paclitaxel 15 mg/kg.
From the text: The purpose of this study was to evaluate the anti-cancer activity of BT17BDC-18 alone and in combination with anti-mPD-1 against established orthotopic E0771 murine mammary carcinoma in female C57BL/6 mice.
All mice were sorted into study groups based on caliper estimation of tumor burden. The mice were distributed to ensure that the mean tumor burden for all groups was within 10% of the overall mean tumor burden for the study population.
All animals weighed at least 16.6 g at the initiation of therapy. […] A tumor burden of 2000 mm^3, was chosen for evaluation of efficacy by time to progression (time to euthanasia/death).
Treatment-related weight change—This is a group endpoint calculated from the group mean body weights. It is calculated differently for specific circumstances as follows: • If (at any point between the first day of treatment and two weeks after the final treatment) the mean group body weight decreases by more than 2%, the maximum weight loss is reported, even if body weight eventually rebounded during treatment to a net weight gain. […] To assess the contribution of test agents to weight loss, Net Treatment Related Weight Loss may be used. […] When this occurs, net weight loss is calculated by normalizing for tumor burden. We do this by constructing a plot of control group mean tumor burden vs control group mean weight loss, using all of the weight data available for the control group. […] This value is then subtracted from the mean weight loss in the treated group to generate the net weight loss for the treated group on that day. The calculated net weight loss is then used to estimate the tolerance to the drug.
Time to Progression (TP)—Time to progression is a surrogate for lifespan, time on study, or lifespan. It is used for studies that involve IACUC mandated euthanasia of animals for excessive tumor burdens (even if the animals otherwise appear normal). The mandated tumor burden limit is tumor model dependent. TP data is analyzed by Kaplan Meier methods just as traditional life span data. The Time to Progression for an individual animal is the number of days between initiation of treatment and the death or required euthanasia of that animal. […] This puts all animals on the same footing, and removes the impact of possibly delayed euthanasia (which may occur for sampling, or weekends and holidays). Animals euthanized for scheduled sampling or other causes unrelated to disease progression or therapy are excluded from this calculation. The median Time to Progression for a group is used to calculate the % Increase in Time to Progression (% ITP).
% Increase in Time to Progression (% ITP)—% ITP is a group endpoint.
Complete Regression (CR)—An animal is credited a complete regression if its tumor burden is reduced to an immeasurable volume at any point after the first treatment. Our convention is to record any tumor measurement less than 5 mm as a “0.” The CR must be maintained for at least 2 consecutive measurements. This is in keeping with the convention of the NCI and reflects the inherent and unacceptably high mechanical error in such measurements in addition to the uncertain biology of what is measured at those small sizes.
Setting [3] is: BT17BDC-18 6.2 mg/kg IV Q7Dx4, anti-mPD-1 10 mg/kg IP, paclitaxel 15 mg/kg IV Q7Dx4, alone or combined.

For `CC(=O)O[C@H]1C(=O)[C@@]2(C)[C@H]([C@H](OC(=O)c3ccccc3)[C@]3(O)C[C@H](OC(=O)[C@H](O)[C@@H](NC(=O)c4ccccc4)c4ccccc4)C(C)=C1C3(C)C)[C@]1(OC(C)=O)CO[C@@H]1C[C@@H]2O` [Paclitaxel], in data set [1], the deaths in group entry is “two”. Further, in data set [2] (setting [3]), the “% increase in time to progression” value came to 17.9%, the “Day 36 median ΔT/ΔC” value turned out to be 94% and the “increase in time to progression” value amounted to 4.0 days. Also, the “anti-tumor activity (in words)” value in data set [2] is reported as “Poor response”. Moreover, the “anti-tumor activity (in words)” value in data set [2] (listed as paclitaxel) is on record as “mildly active”.
